Data taken from patent publication US10508109B2 (priority 2015, dated 2019).

Tests used:
A549 = assay: Cell-based assay, anti-proliferative activity (Cell Counting Kit-8, 72 hours); settings: Homo sapiens; A549 cells, 72 hours, Cell Counting Kit-8; read-out: IC50 (μM) A549
In short: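 Seed cells in 96-well format; add inhibitors; measure growth by CCK-8 at end of exposure; derive IC50.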

SUV39H2 = SUV39H2 (Homo sapiens (Human), UniProt Q9H5I1); settings: read-out: IC50 (μM) Suv 39H2 assay; enzyme assay
CCD-18Co = assay: Cell-based assay, anti-proliferative activity (Cell Counting Kit-8, 72 hours); settings: Homo sapiens; CCD-18Co cells, 72 hours, Cell Counting Kit-8; read-out: IC50 (μM) CCD-18Co
In short: (§1)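 Seed cells in 96-well plates; add serially diluted inhibitor (1.5625 to 100 micro-M plus vehicle); incubate 72 hours; quantify viable growth by CCK-8 and calculate IC50.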

HFL1 = assay: as above; settings: Homo sapiens; HFL1 cells, 72 hours, Cell Counting Kit-8; read-out: IC50 (μM) HFL1
In short: as §1

HCT-116 = assay: as above; settings: Homo sapiens; HCT-116 cells, 72 hours, Cell Counting Kit-8; read-out: IC50 (μM) HCT-116
In short: as §1

PC14 = assay: as above; settings: Homo sapiens, PC-14; PC14 cells, 72 hours, Cell Counting Kit-8; read-out: IC50 (μM) PC14
In short: as §1

Sequence of SUV39H2 (Q9H5I1 whole entry): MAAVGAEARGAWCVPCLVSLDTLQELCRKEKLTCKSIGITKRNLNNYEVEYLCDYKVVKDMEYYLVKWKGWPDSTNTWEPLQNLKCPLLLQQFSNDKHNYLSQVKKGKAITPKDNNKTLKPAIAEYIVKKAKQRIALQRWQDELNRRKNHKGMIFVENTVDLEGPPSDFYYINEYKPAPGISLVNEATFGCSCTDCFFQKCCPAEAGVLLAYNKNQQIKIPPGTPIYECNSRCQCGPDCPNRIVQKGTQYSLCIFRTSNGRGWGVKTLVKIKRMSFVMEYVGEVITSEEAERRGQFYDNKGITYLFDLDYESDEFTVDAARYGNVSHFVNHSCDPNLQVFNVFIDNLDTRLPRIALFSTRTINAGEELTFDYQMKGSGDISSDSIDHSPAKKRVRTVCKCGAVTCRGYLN

| SMILES | IC50 (A549) | IC50 (SUV39H2) | IC50 (CCD-18Co) | IC50 (HFL1) | IC50 (HCT-116) | IC50 (PC14) |
| --- | --- | --- | --- | --- | --- | --- |
| COc1cc(OC)c(-c2cn3ccc(N4CCN(c5ncccc5C#N)CC4)cc3n2)cc1Cl [Example 283, 2-(4-(2-(5-chloro-2,4-dimethoxyphenyl)imidazo[1,2-a]pyridin-7-yl)-piperazin-1-yl)nicotinonitrile] | 0.66 µM | 0.0141 µM | 0.45 µM | 0.69 µM | 0.42 µM | 0.68 µM |
| COc1cc(OC)c(-c2cn3ccc(OC4CCN(c5ccnc(N)n5)CC4)cc3n2)cc1Cl [Example 284, 4-(4-((2-(5-chloro-2,4-dimethoxyphenyl)imidazo[1,2-a]pyridin-7-yl)oxy)-piperidin-1-yl)pyrimidin-2-amine] | 1.5 µM | 0.0918 µM | 1.3 µM | 1.1 µM | 0.71 µM | 0.98 µM |
| COc1cc(OC)c(-c2cn3ccc(N4CCN(c5cnccn5)CC4)cc3n2)cc1Cl [Example 285, 2-(5-chloro-2,4-dimethoxyphenyl)-7-(4-(pyrazin-2-yl)piperazin-1-yl)imidazo[1,2-a]pyridine] | 0.72 µM | 0.00747 µM | 0.7 µM | 0.69 µM | 0.67 µM | 0.7 µM |
| COc1cc(OC)c(-c2cn3ccc(N4CCN(c5nccc(N)n5)CC4)cc3n2)cc1Cl [Example 286, 2-(4-(2-(5-chloro-2,4-dimethoxyphenyl)imidazo[1,2-a]pyridin-7-yl)piperazin-1-yl)-pyrimidin-4-amine] | 0.65 µM | 0.00881 µM | 0.71 µM | 0.7 µM | 0.56 µM | 0.63 µM |
| COc1cc(OC)c(-c2cn3ccc(N[C@H]4CC[C@H](Nc5ccccn5)CC4)cc3n2)cc1Cl [Example 287, N^1-(2-(5-chloro-2,4-dimethoxyphenyl)imidazo[1,2-a]pyridin-7-yl)-N^4-(pyridin-2-yl)-trans-cyclohexane-1,4-diamine] | 0.8 µM | 0.0327 µM | 0.81 µM | 0.78 µM | 0.91 µM | 0.94 µM |
| COc1cc(OC)c(-c2cn3ccc(OC4CCN(S(=O)(=O)c5nccn5C)CC4)cc3n2)cc1Cl [Example 288, 2-(5-chloro-2,4-dimethoxyphenyl)-7-((1-((1-methyl-1H-imidazol-2-yl)sulfonyl)piperidin-4-yl)oxy)imidazo[1,2-a]pyridine] | 0.8 µM | 0.0928 µM | 1.5 µM | 1.7 µM | 0.98 µM | 1.2 µM |
| COc1cc(OC)c(-c2cn3ccc(N[C@H]4CC[C@H](CN5CCN(S(C)(=O)=O)CC5)CC4)cc3n2)cc1Cl [Example 289, 2-(5-chloro-2,4-dimethoxyphenyl)-trans-N-(4-((4-(methylsulfonyl)piperazin-1-yl)methyl)cyclohexyl)imidazo-[1,2-a]pyridin-7-amine] | 0.63 µM | 0.028 µM | 0.72 µM | 0.74 µM | 0.83 µM | 0.77 µM |
| COc1cc(OC)c(-c2nc3cc(N4CCN(C(=O)OC(C)(C)C)CC4)ccn3c2I)cc1Cl [Example 290, tert-butyl 4-(2-(5-chloro-2,4-dimethoxyphenyl)-3-iodoimidazo[1,2-a]-pyridin-7-yl)piperazine-1-carboxylate] | 1.3 µM | 0.00975 µM | 1.4 µM | 1.3 µM | 1.3 µM | 0.61 µM |
| COc1cc(OC)c(-c2cn3ccc(N[C@H]4CC[C@H](NCc5ccccc5)CC4)cc3n2)cc1Cl [Example 291, N^1-benzyl-N^4-(2-(5-chloro-2,4-dimethoxyphenyl)imidazo[1,2-a]pyridin-7-yl)-trans-cyclohexane-1,4-diamine] | 0.72 µM | 0.041 µM | 0.76 µM | 0.93 µM | 0.67 µM | 0.71 µM |
| COc1cc(OC)c(-c2cn3ccc(N4CCN(Cc5ccncc5)CC4)cc3n2)cc1Cl [Example 292, 2-(5-chloro-2,4-dimethoxyphenyl)-7-(4-(pyridin-4-ylmethyl)piperazin-1-yl)imidazo[1,2-a]pyridine] | 1.2 µM | 0.00637 µM | 1.3 µM | 1.2 µM | 1.3 µM | 0.68 µM |
| COc1cc(OC)c(-c2cn3ccc(N4CCN(c5ccc(C#N)cn5)CC4)cc3n2)cc1Cl [Example 293, 6-(4-(2-(5-chloro-2,4-dimethoxyphenyl)imidazo[1,2-a]pyridin-7-yl)-piperazin-1-yl)nicotinonitrile] | 0.67 µM | 0.0226 µM | 0.62 µM | 1.3 µM | 0.33 µM | 1 µM |
| COc1cc(OC)c(-c2cn3ccc(N4CCN(c5ccnc(N6CCOCC6)n5)CC4)cc3n2)cc1Cl [Example 294, 4-(4-(4-(2-(5-chloro-2,4-dimethoxyphenyl)imidazo[1,2-a]pyridin-7-yl)-piperazin-1-yl)pyrimidin-2-yl)morpholine] | 1.1 µM | 0.0283 µM | 1.3 µM | 2.3 µM | 0.78 µM | 1 µM |
| COc1cc(OC)c(-c2cn3ccc(N4CCN(c5ccnc(N6CCCCC6)n5)CC4)cc3n2)cc1Cl [Example 295, 2-(5-chloro-2,4-dimethoxyphenyl)-7-(4-(2-(piperidin-1-yl)pyrimidin-4-yl)piperazin-1-yl)imidazo[1,2-a]pyridine] | 0.89 µM | 0.0598 µM | 1.3 µM | 1.4 µM | 0.93 µM | 0.93 µM |
| COc1cc(OC)c(-c2cn3ccc(N4CCN(c5cccnc5)CC4)cc3n2)cc1Cl [Example 296, 2-(5-chloro-2,4-dimethoxyphenyl)-7-(4-(pyridin-3-yl)piperazin-1-yl)imidazo[1,2-a]pyridine] | 0.66 µM | 0.013 µM | 0.79 µM | 0.73 µM | 0.56 µM | 0.64 µM |
| COc1cc(OC)c(-c2cn3ccc(N4CCN(c5ccnc(N(C)C)n5)CC4)cc3n2)cc1Cl [Example 297, 4-(4-(2-(5-chloro-2,4-dimethoxyphenyl)imidazo[1,2-a]pyridin-7-yl)-piperazin-1-yl)-N,N-dimethylpyrimidin-2-amine] | 0.43 µM | 0.0342 µM | 0.72 µM | 0.65 µM | 0.33 µM | 0.47 µM |
| COc1cc(OC)c(-c2cn3ccc(N4CC[C@H](NCc5ccccn5)C4)cc3n2)cc1Cl [Example 299, (S)-1-(2-(5-chloro-2,4-dimethoxyphenyl)imidazo[1,2-a]pyridin-7-yl)-N-(pyridin-2-ylmethyl)pyrrolidin-3-amine] | 5.3 µM | 0.00721 µM | 5.5 µM | 6.2 µM | 4.5 µM | 3.5 µM |
| COc1cc(OC)c(-c2cn3ccc(N4CC[C@H](NCc5cccnc5)C4)cc3n2)cc1Cl [Example 300, (S)-1-(2-(5-chloro-2,4-dimethoxyphenyl)imidazo[1,2-a]pyridin-7-yl)-N-(pyridin-3-ylmethyl)pyrrolidin-3-amine] | 6 µM | 0.0127 µM | 6.1 µM | 7.1 µM | 4.7 µM | 3.5 µM |
